One compound from patent US6037333A, “Microbe-inhibiting compositions” (Trustees of Tufts College, priority 1998, dated 2000) can be followed below.

In experiment [1] the target is mannose binding protein (MBP) of Acanthamoeba (Acanthamoeba castellanii, UniProt Q6J288). The experiment in a line: Solid-phase assay of 35S-labeled Acanthamoeba binding to Man-BSA coated wells. Also noted: species or system Acanthamoeba strain MEEI 0184 (A. castellani). The settings on record: for Inhibition of amoebic binding to Man-BSA / affinity of amoebic lectin: no concentration stated.
Sequence of mannose binding protein (MBP) of Acanthamoeba (Q6J288 entry or part of it): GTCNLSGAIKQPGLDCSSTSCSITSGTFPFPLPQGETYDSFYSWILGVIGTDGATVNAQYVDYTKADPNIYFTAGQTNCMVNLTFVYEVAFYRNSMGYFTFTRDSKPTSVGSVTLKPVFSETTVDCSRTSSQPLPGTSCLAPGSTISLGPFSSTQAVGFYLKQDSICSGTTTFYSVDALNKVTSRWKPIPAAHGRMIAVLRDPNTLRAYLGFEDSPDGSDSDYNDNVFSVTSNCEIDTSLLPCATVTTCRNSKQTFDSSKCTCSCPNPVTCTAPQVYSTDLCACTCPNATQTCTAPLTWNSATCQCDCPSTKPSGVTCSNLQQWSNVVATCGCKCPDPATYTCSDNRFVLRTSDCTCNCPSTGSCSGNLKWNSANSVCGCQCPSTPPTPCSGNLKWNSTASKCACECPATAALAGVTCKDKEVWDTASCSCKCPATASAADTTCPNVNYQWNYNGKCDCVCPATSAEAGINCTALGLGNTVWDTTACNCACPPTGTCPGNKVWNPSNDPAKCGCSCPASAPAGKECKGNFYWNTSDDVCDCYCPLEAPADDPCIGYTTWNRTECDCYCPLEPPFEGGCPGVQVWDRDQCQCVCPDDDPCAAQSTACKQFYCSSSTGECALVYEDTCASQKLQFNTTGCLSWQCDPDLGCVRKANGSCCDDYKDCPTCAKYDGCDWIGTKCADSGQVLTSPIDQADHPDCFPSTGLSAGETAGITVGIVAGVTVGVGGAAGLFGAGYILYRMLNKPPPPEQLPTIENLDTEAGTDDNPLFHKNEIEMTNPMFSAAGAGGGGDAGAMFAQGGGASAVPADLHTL

The next experiment relates to Acanthamoeba. The experiment in a line: 51Cr release assay of amoeba-induced cytolysis of corneal epithelium. Type of experiment: cell-based. As for the experimental part: Chromium release experiments were performed to confirm the absence or occurrence of cytolysis. Visually, cell plaques or bare spots in a culture can indicate either cell loss by cytolysis, or separation of the cell from the culture surface, wherein detached cells, although initially viable, subsequently die. Cell lysis was quantified by measuring ^51 Cr release from prelabeled cells. After incubating confluent monolayer cultures of corneal epithelium in 24-well plates in cell culture medium containing Na^51 CrO4 (460 mCi/mg, 12 μCi/ml) for 18-20 hours, the cells were thoroughly rinsed and incubated with Acanthamoeba (1×10^6 parasites/ml SFB media). The four groups were (i) Acanthamoeba in media alone, (ii) Acanthamoeba in media containing α-Man, (iii) Acanthamoeba in media containing GlcNAc, and (iv) Acanthamoeba condition media. When approximately 50-70% cell loss occurred based on phase contrast microscopy, aliquots of cell-free conditioned medium from each well were analyzed. Supernatants from the four wells in each group were pooled before analysis. Percent specific release was calculated using E/T×100, where E is CPM released in test well minus CPM released in control (parasite-free) well and T is the total CPM (CPM cells+CPM supernatant in control wells). "CPM cells" was determined by incubating control wells with 0.5% Triton X-100. Conditioned media from each well was also analyzed for lactate dehydrogenase (LDH) release using an LDH assay kit (Sigma).

The next experiment addresses proteinases P2 and P3. The experiment is described as follows: Zymography of media conditioned by amoebae with primary corneal epithelium, with or without α-Man. Type of experiment: cell-based, Acanthamoeba. To be noted: amoebae with host cells, adhesion blocked by saccharide. As for the experimental part: To characterize the mechanism by which the mannose-mediated host-parasite interactions influence the amoeba-induced cytolysis and/or cytopathic effect, conditioned media obtained by incubating amoebae with primary cultures of corneal epithelium in the presence and absence of α-Man for 6 to 8 hours were analyzed by zymography. Media conditioned by only Acanthamoeba or only epithelial cells were also analyzed. Zymography was performed using separating gels containing 10% acrylamide and 2 mg/ml gelatin, essentially as described by D. E. Kleiner et al. (Anal Biochem. 218:325-329, 1994). Samples were diluted in the electrophoresis sample buffer (U. K. Laemmli, Nature 227:680-685, 1970) without mercaptoethanol and were applied to the gels. After electrophoresis, proteinases separated on the gels were renatured by incubating the gels in 2.5% Triton X-100 in 50 mM Tris-HCl, pH 7.5 to remove SDS. After incubating the gels for 18 hours in a developing buffer (50 mM Tris-HCl, pH 7.5 containing 10 mM CaCl2), the gels were stained with Coomassie brilliant blue. Areas of digestion were visualized as non-staining regions. In some experiments, samples were pre-treated with phenylmethylsulfonyl fluoride (PMSF, 1 mM), an inhibitor of […] for one hour prior to electrophoresis, or 1,10-phenanthroline (1 mM), an inhibitor of metalloproteinases, was added to the developing buffer.

Entries after “also recorded” stand apart in the source; their conditions may differ.

For the compound `CO[C@H]1O[C@H](CO)[C@@H](O)[C@H](O)[C@@H]1O` [Methyl-α-D-mannopyranoside], in experiment [1] (comparator named in the value, listed as α-Man), the “Relative inhibitory potency in binding to Man-BSA” value is “ten times that of D-mannose; also recorded: eight times that of β-Man”. For the same compound, the results for the “Inhibition of amoebic binding to Man-BSA / affinity of amoebic lectin” value in experiment [1] (listed as Methyl-α-mannopyranoside) and in experiment [1] (listed as α-Man) were “potent inhibitors” and “highest affinity”, respectively. In the experiment on Acanthamoeba (Acanthamoeba 1×10^6 parasites/ml in media containing the saccharide, media alone about 100), the “Percentage specific 51Cr release” value was about 28%. Also, the “Inhibition of amoeba-induced cytolysis” value in the experiment with Acanthamoeba (fifty millimolar, 51Cr release) was “more than 70%”. For the same compound, the “Expression of proteinase P2 (97 kD)” value at proteinases P2 and P3 is “robustly expressed”. Also, on proteinases P2 and P3 (listed as α-Man), the “Expression of proteinase P3 (80 kD)” value is reported as “not expressed; also recorded: not detected”.
